Experimental data taken from paper PMC10065799, “High-throughput profiling of sequence recognition by tyrosine kinases and SH2 domains using bacterial peptide display” (eLife, 2023).

What was measured:
c-Abl kinase domain [1] = target: T1, c-Abl kinase domain (Mus musculus, UniProt P00520); test: ADP-Quest continuous fluorimetric kinase assay (Michaelis-Menten parameters and initial rates); format: biochemical; conditions: peptide 100 μM, kinase 10–50 nM; Figure 2C
T1 sequence (P00520 242-493 limits assumed): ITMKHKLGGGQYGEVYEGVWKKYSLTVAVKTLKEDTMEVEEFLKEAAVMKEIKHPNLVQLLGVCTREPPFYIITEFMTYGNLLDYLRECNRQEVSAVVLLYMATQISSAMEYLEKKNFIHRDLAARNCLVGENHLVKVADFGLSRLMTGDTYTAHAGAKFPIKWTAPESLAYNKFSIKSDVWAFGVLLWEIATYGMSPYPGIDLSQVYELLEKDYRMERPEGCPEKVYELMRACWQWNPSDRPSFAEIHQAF

c-Src kinase domain [2] = target: T2, c-Src kinase domain (Homo sapiens, UniProt P12931); test: as above; format: biochemical
AncSZ kinase domain = test: pTyr-Var library bacterial peptide display kinase screen (enrichment scores); format: biochemical; conditions: for AncSZ mean of log2(enrichment): mean of log2 of enrichment over R1-R5; for AncSZ enrich. R1 / AncSZ enrich. R3 / AncSZ enrich. R4 / AncSZ enrich. R5: pTyr-Var library, enrichment score; for AncSZ enrich. R1: replicate 1; for AncSZ enrich. R3: replicate 3; for AncSZ enrich. R4: replicate 4; for AncSZ enrich. R5: replicate 5
Grb2 SH2 domain = test: pTyr-Var library SH2 domain screen with SH2-dynabeads (enrichment scores); conditions: R1-R3
Jak2 = test: pTyr-Var library bacterial peptide display kinase screen (enrichment scores); format: biochemical, human; conditions: for Jak2 mean of log2(enrichment): mean of log2 of enrichment over R1-R3; for Jak2 enrich. R1 / Jak2 enrich. R3: pTyr-Var library, enrichment score; for Jak2 enrich. R1: replicate 1; for Jak2 enrich. R3: replicate 3
Hck kinase domain = test: as above; format: biochemical, human; conditions: for Hck mean of log2(enrichment): mean of log2(variant) / mean of log2(reference), R1-R4; for Hck enrich. R1 / Hck enrich. R3 / Hck enrich. R4: pTyr-Var library, enrichment score; for Hck enrich. R1: replicate 1; for Hck enrich. R3: replicate 3; for Hck enrich. R4: replicate 4
EPHB1 kinase domain = test: as above; format: biochemical, human; conditions: mean of log2 enrichment of reference peptide, n = 4
Fes = test: as above; format: biochemical; conditions: mean of log2 of enrichment over R1-R6
FGFR1 kinase domain = test: as above; format: biochemical, human; conditions: n = 5
SHP2 C-SH2 domain = test: pTyr-Var library SH2 domain screen with SH2-dynabeads (enrichment scores); conditions: R1-R3
Fer kinase domain = test: pTyr-Var library bacterial peptide display kinase screen (enrichment scores); format: biochemical, mouse; conditions: for Fer mean of log2(enrichment): mean of log2 of enrichment over R1-R4; for Fer enrich. R1 / Fer enrich. R3 / Fer enrich. R4: pTyr-Var library, enrichment score; for Fer enrich. R1: replicate 1; for Fer enrich. R3: replicate 3; for Fer enrich. R4: replicate 4
c-Src kinase domain [3] = target: T2, c-Src kinase domain; test: as above; format: biochemical; conditions: for c-Src mean of log2(enrichment): mean of log2 of enrichment over R1-R4; for c-Src enrich. R1 / c-Src enrich. R3 / c-Src enrich. R4: pTyr-Var library, enrichment score; for c-Src enrich. R1: replicate 1; for c-Src enrich. R3: replicate 3; for c-Src enrich. R4: replicate 4
EPHB2 kinase domain = test: as above; format: biochemical, human; conditions: mean of log2 enrichment of reference peptide, n = 4
MERTK kinase domain = test: as above; format: biochemical, human; conditions: for mean of log2(reference): mean of log2 enrichment of reference peptide, n = 4
c-Src SH2 domain = c-Src SH2 domain (Homo sapiens, UniProt P12931); test: pTyr-Var library SH2 domain screen with SH2-dynabeads (enrichment scores); conditions: mean of log2 enrichment of reference peptide, R1-R3; sheet c-Src
c-Abl kinase domain [4] = target: T1, c-Abl kinase domain; test: pTyr-Var library bacterial peptide display kinase screen (enrichment scores); format: biochemical; conditions: for c-Abl mean of log2(enrichment): mean of log2 of enrichment over R1-R4; for c-Abl enrich. R1 / c-Abl enrich. R3 / c-Abl enrich. R4: pTyr-Var library, enrichment score; for c-Abl enrich. R1: replicate 1; for c-Abl enrich. R3: replicate 3; for c-Abl enrich. R4: replicate 4
Fyn kinase domain = test: as above; format: biochemical, human; conditions: for Fyn mean of log2(enrichment): mean of log2 of enrichment over R1-R4; for Fyn enrich. R1 / Fyn enrich. R3 / Fyn enrich. R4: pTyr-Var library, enrichment score; for Fyn enrich. R1: replicate 1; for Fyn enrich. R3: replicate 3; for Fyn enrich. R4: replicate 4
FGFR3 kinase domain = test: as above; format: biochemical, human; conditions: n = 5
[5] = ADP-Quest assay, c-Src kinase domain 10 nM, 100 μM ATP, 37 °C, three to five replicates, error = standard error of global Michaelis-Menten fit

Substance | AncSZ mean of log2(enrichment) (AncSZ kinase domain) | AncSZ enrich. R1 (AncSZ kinase domain) | AncSZ enrich. R3 (AncSZ kinase domain) | AncSZ enrich. R4 (AncSZ kinase domain) | AncSZ enrich. R5 (AncSZ kinase domain) | mean of log2(reference) (Grb2 SH2 domain) | Jak2 mean of log2(enrichment) (Jak2) | Jak2 enrich. R1 (Jak2) | Jak2 enrich. R3 (Jak2) | Hck mean of log2(enrichment) (Hck kinase domain) | Hck enrich. R1 (Hck kinase domain) | Hck enrich. R3 (Hck kinase domain) | Hck enrich. R4 (Hck kinase domain) | mean of log2(reference) (EPHB1 kinase domain) | Fes mean of log2(enrichment) (Fes) | mean of log2(reference) (FGFR1 kinase domain) | mean of log2(reference) (SHP2 C-SH2 domain) | Fer mean of log2(enrichment) (Fer kinase domain) | Fer enrich. R1 (Fer kinase domain) | Fer enrich. R3 (Fer kinase domain) | further results
Ac-GPDECIYDMFPFKKKG-NH2 [Src Consensus, c-Src consensus substrate peptide from X5-Y-X5 screen] |  |  |  |  |  |  |  |  |  |  |  |  |  |  |  |  |  |  |  |  | phosphorylation of consensus peptide by c-Abl (initial rate relative to cognate consensus) (c-Abl kinase domain [1]): efficiently phosphorylated; Km (c-Src kinase domain [2]; [5]): 196 ± 38 µM; kcat (c-Src kinase domain [2]; [5]): 4.9±0.4 s^–1; phosphorylation of consensus peptide by c-Src (initial rate relative to cognate consensus) (c-Src kinase domain [2]; high concentration: peptide 100 μM, kinase 10–50 nM, Figure 2C): selective
GMAHNYRNSSQ [AASS_Y188] | -0.7891 | 0.6022 | 0.4422 | 0.5318 | 0.777 | -0.5728 | -1.234 | 0.5584 | 0.3848 | 0.4135 | 0.473 | 0.3667 | 0.3337 | -2.084 | -1.191 | -1.437 | -0.8121 | -1.39 | 0.41 | 0.4208 | Fer enrich. R4 (Fer kinase domain): 0.3128; c-Src mean of log2(enrichment) (c-Src kinase domain [3]): -1.404; c-Src enrich. R1 (c-Src kinase domain [3]): 0.429; c-Src enrich. R3 (c-Src kinase domain [3]): 0.2705; c-Src enrich. R4 (c-Src kinase domain [3]): 0.4776; mean of log2(reference) (EPHB2 kinase domain): -1.13; mean of log2(reference) (MERTK kinase domain): -1.316; ref. mean (MERTK kinase domain; pTyr-Var library, reference peptide enrichment, mean of n = 4): 0.4184; mean of log2(reference) (c-Src SH2 domain): -1.119; c-Abl mean of log2(enrichment) (c-Abl kinase domain [4]): -1.694; c-Abl enrich. R1 (c-Abl kinase domain [4]): 0.3586; c-Abl enrich. R3 (c-Abl kinase domain [4]): 0.2586; c-Abl enrich. R4 (c-Abl kinase domain [4]): 0.2717; Fyn mean of log2(enrichment) (Fyn kinase domain): -1.328; Fyn enrich. R1 (Fyn kinase domain): 0.4068; Fyn enrich. R3 (Fyn kinase domain): 0.5016; Fyn enrich. R4 (Fyn kinase domain): 0.6969; mean of log2(reference) (FGFR3 kinase domain): -1.231
TTGLIYIGSHD [AASDH_Y870] | -0.4681 | 0.7227 | 0.6145 | 0.7736 | 0.7032 | 0.04072 | -0.485 | 0.7507 | 0.724 | 0.4597 | 0.6399 | 0.4036 | 0.2897 | -0.5976 | -0.4107 | -1.189 | -0.7271 | -1.298 | 0.3587 | 0.5035 | Fer enrich. R4 (Fer kinase domain): 0.5633; c-Src mean of log2(enrichment) (c-Src kinase domain [3]): -1.294; c-Src enrich. R1 (c-Src kinase domain [3]): 0.3921; c-Src enrich. R3 (c-Src kinase domain [3]): 0.3853; c-Src enrich. R4 (c-Src kinase domain [3]): 0.4379; mean of log2(reference) (EPHB2 kinase domain): -0.8783; mean of log2(reference) (MERTK kinase domain): -1.687; mean of log2(reference) (c-Src SH2 domain): -0.7916; c-Abl mean of log2(enrichment) (c-Abl kinase domain [4]): -1.045; c-Abl enrich. R1 (c-Abl kinase domain [4]): 0.5107; c-Abl enrich. R3 (c-Abl kinase domain [4]): 0.4932; c-Abl enrich. R4 (c-Abl kinase domain [4]): 0.3951; Fyn mean of log2(enrichment) (Fyn kinase domain): -1.48; Fyn enrich. R1 (Fyn kinase domain): 0.4689; Fyn enrich. R3 (Fyn kinase domain): 0.3674; Fyn enrich. R4 (Fyn kinase domain): 0.214; mean of log2(reference) (FGFR3 kinase domain): -0.6492
